Laboratory results: patent EP2853532B1, “1,2,4-oxadiazole derivatives as allosteric modulators of metabotropic glutamate receptors belonging to group III” (Instytut Farmakologii Polskiej Akademii Nauk, priority 2013, dated 2015)

Target: mGluR8 (Homo sapiens, UniProt O00222)
Assay: not given
Conditions: cited from earlier work

mGluR8, sequence (O00222 34-908, species assumed): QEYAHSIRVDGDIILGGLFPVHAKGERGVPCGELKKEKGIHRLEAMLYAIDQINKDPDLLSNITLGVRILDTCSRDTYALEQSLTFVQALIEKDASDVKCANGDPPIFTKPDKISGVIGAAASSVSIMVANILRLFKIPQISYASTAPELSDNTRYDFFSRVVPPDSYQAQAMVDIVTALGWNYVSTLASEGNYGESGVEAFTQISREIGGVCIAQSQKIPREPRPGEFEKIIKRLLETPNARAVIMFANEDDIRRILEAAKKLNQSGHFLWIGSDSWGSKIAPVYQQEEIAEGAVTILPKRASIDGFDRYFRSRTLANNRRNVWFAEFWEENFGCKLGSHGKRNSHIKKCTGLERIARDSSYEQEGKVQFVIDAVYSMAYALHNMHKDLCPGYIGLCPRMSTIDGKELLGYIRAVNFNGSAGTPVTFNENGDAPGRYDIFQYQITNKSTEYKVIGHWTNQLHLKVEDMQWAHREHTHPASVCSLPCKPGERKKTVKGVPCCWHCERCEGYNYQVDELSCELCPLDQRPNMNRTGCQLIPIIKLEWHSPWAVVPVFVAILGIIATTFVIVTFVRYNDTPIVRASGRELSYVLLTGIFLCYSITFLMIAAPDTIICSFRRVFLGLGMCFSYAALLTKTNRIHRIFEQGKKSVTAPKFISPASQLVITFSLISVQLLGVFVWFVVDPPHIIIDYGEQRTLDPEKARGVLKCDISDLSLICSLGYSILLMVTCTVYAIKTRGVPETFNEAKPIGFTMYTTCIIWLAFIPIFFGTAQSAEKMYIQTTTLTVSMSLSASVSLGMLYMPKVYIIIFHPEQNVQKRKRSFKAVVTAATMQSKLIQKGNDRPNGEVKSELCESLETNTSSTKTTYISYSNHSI

SMILES | selectivity for mGluR8 over mGluR4 [fold]
N[C@H](C(=O)O)c1ccc(C(=O)O)c(C(=O)O)c1 [(S)-3,4-DCPG] | 100

Target: T1, recombinant human mGlu4a receptor (Homo sapiens, UniProt Q14833)
T1 construct: expressed in transfected cells
T1 sequence (Q14833 33-912): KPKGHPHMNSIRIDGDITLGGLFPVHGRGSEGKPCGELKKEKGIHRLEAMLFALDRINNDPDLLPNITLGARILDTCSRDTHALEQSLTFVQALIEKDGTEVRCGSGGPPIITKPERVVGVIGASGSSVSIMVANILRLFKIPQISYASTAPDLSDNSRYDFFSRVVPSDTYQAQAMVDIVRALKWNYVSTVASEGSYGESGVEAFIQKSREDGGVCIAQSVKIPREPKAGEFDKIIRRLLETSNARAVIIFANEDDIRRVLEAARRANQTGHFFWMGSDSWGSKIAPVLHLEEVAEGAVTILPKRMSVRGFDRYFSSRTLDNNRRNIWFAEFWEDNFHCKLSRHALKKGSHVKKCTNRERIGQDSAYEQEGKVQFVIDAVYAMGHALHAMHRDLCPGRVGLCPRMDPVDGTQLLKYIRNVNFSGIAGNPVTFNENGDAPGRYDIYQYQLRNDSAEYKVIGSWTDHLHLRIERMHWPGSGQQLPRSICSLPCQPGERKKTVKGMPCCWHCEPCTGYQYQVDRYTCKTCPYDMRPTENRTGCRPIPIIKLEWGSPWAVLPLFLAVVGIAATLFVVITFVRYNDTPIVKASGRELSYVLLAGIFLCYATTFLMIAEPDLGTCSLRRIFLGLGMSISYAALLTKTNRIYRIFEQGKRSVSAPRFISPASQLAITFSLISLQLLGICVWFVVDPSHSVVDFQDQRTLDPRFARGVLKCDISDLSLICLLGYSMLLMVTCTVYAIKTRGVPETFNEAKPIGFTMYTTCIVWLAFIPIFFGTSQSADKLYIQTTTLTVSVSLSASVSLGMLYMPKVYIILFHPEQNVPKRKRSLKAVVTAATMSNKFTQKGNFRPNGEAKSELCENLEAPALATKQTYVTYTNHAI
Assay: mGluR4 assay on T-Rex-293 cell line; cyclic AMP level by HTRF in the presence of forskolin and glutamate
Type: cell-based
Conditions: EC50 for potentiation of glutamate response; forskolin 10 uM; mean of at least three independent experiments in duplicates
From the text: mGluR4 assay on T-Rex™-293 Cell line - expressing recombinant human mGlu4 receptor.
The compounds of the present invention are positive allosteric modulator of III group of metabotropic glutamate receptors, subtype 4. Their activity was examined on recombinant human mGlu4a receptor by detecting level of cyclic AMP in the presence of forskolin, adenylyl cyclase activator. The positive allosteric modulators provided in the present invention are expected to increase the functional activity and/or maximal efficacy of glutamate or other orthosteric agonists at mGluR4 receptor.
Plazmid construct. The cDNA fragment encoding human metabotropic receptor 4, variant 1 (accession number: NM_000841, NCBI Nucleotide Database) was cloned into the BamHI/NotI sites of pcDNA5/FRT/TO vector, under the control of a tetracycline regulated promoter (Invitrogen, Poland).
Cell culture and transfection. HEK293 cell line containing an inducible expression system (Flp-In T-Rex 293 cell line, Invitrogen, Poland) was maintained in Dulbecco's modified Eagle's medium supplemented with 10% fetal bovine serum, 2mM L-Glutamine (supplemented DMEM, LONZA, Poland), blastycidin and zeocin. T-Rex 293 cells were transfected with mixture of pTet-hmGluR4 and pOG44 (Invitrogen, Poland) plazmids and GeneJuice transfection reagent (Merck Millipore, Poland) according to the manufacturer's instructions. Cells were grown in supplemented DMEM with hygromycin B (75µg/ml) allowed selection of cells with stably integrated one copy of pTet-hmGluR4 plazmid. Expression of mGluR4 is induced by Tetracycline treatment.
Cell preparation before assay. Stable transfected cells were grown to 60% confluency with supplemented DMEM. Two days before experiment mGluR4 expression was induced by adding tetracycline in concentration 0,75µg/ml. 40h before experiment cells were incubated in a L-Glutamine free medium.
Cyclic AMP measurement. cAMP was measured quantitatively by cAMP dynamic 2 (Cisbio Biossays, France) according to manufacture instructions. cAMP dynamic 2 assay (Cisbio Biossays, France) is method based on homogenous time-resolved fluorescence. cAMP dynamic 2 is a competitive immunoassay between native cAMP produced by cells and the cyclic AMP labeled with, a fluorescence dye. The tracer binding is visualized by antibody anti - cAMP labeled with Eu^3+ cryptate. The specific signal is inversely proportional to the concentration of cAMP in the sample.
Incubation of cells with all compounds was performed in 96 well plates. Each well were supplement with HHB containing 130 mM NaCl, 5,4 mM KCl, 1,8 mM CaCl2, 0,8 mM MgSO4, 0,9 mM NaH2PO4, 25 mM glucose and 20 mM HEPES, pH 7.4 with or without glutamate and with or without tested compound and forskolin (10 uM final concentration) in total volume of 50 ul. Assay was started by adding 50 ul of HHB buffer with cells to each well. Assay was performed in 37° C. After 5 min of incubation 10 ul of suspension containing 2000 cells were transferred to white 384 well plates (784080, Greiner bio-one) containing of 5 ul of cAMP-d2 conjugate in lysis buffer (cAMP dynamic 2, Cisbio Bioassays, France) in each well. Than was added 5 ul of cryptate conjugate in lysis buffer (cAMP dynamic 2, Cisbio Bioassays, France). After 1 h incubation in room temperature the fluorescence intensity of the assay plate were measured at 314 nm excitation, and 620 nm and 665 nm emission in Infinite M1000 (Tecan) microplate reader. Data were expressed as the ratio of 665 nm/620 nm. All liquid handling operations were performed using EVO 2000 system (Tecan, Switzerland).
Potentiation of the glutamate response of mGluR4 receptor by the invented compounds was observed as a decrease of EC50 value for the glutamate in the presence of these molecules in the compare of EC50 value in the absence of compounds. A decrease in the EC50 for glutamate in the presence of tested compound was an indicator of degree of mGluR4 positive allosteric modulation at a given concentration of the sample compound. […]

SMILES | EC50 [nM]
COc1ccccc1-c1nc(-c2ccc(NC(=O)c3ccccn3)cc2F)no1 [Example 27, N-{4-[5-(2-methoxyphenyl)-1,2,4-oxadiazol-3-yl]-3-fluorophenyl}pyridine-2-carboxamide] | < 300
O=C(Nc1ccc(-c2noc(-c3ccccc3)n2)c(C(F)(F)F)c1)c1ccccn1 [Example 28] | < 300
Cc1cc(NC(=O)c2ccccn2)ccc1-c1noc(-c2ccccc2)n1 [Example 30, N-[3-methyl-4-(5-phenyl-1,2,4-oxadiazol-3-yl)phenyl]pyridine-2-carboxamide] | < 300
COc1ccc(C(=O)Nc2ccc(-c3nc(-c4ccccc4)no3)cc2)cc1 [Example 49, 4-methoxy-N-[4-(3-phenyl-1,2,4-oxadiazol-5-yl)phenyl]benzamide] | < 300

Same assay, conditions: T-REx-293; percent of mGluR4 activity with tested compound and glutamate at maximally activating concentration (100%); mean of at least three independent experiments; read-out: % Glu Max

SMILES | Emax [%]
COc1ccc(-c2nc(-c3ccc(NC(=O)c4ccncc4)cc3)no2)cc1 [Example 6, N-{4-[5-(4-methoxyphenyl)-1,2,4-oxadiazol-3-yl]phenyl}pyridine-4-carboxamide] | 105 to 135
COc1cc(NC(=O)c2ccccn2)ccc1-c1noc(-c2ccccc2Cl)n1 [Example 17, N-{4-[5-(2-chlorophenyl)-1,2,4-oxadiazol-3-yl]-3-methoxyphenyl}pyridine-2-carboxamide] | 99.2 to 119
COc1cc(NC(=O)c2ccccn2)ccc1-c1noc(-c2ccc(F)cc2Cl)n1 [Example 19, N-{4-[5-(2-chloro-4-fluorophenyl)-1,2,4-oxadiazol-3-yl]-3-methoxyphenyl} pyridine-2-carboxamide] | 99.2 to 119
O=C(Nc1ccc(-c2noc(-c3ccc(F)cc3Cl)n2)c(Cl)c1)c1ccccn1 [Example 22, N-{3-chloro-4-[5-(2-chloro-4-fluorophenyl)-1,2,4-oxadiazol-3-yl]phenyl}pyridine-2-carboxamide] | 99.2 to 119
O=C(Nc1ccc(-c2noc(-c3ccc(F)cc3Cl)n2)c(F)c1)c1ccccn1 [Example 26, N-{4-[5-(2-chloro-4-fluorophenyl)-1,2,4-oxadiazol-3-yl]-3-fluorophenyl} pyridine-2-carboxamide] | 105 to 135
COc1ccccc1-c1nc(-c2ccc(NC(=O)c3ccccn3)cc2F)no1 [Example 27, N-{4-[5-(2-methoxyphenyl)-1,2,4-oxadiazol-3-yl]-3-fluorophenyl}pyridine-2-carboxamide] | 105 to 118
O=C(Nc1ccc(-c2noc(-c3ccccc3)n2)c(C(F)(F)F)c1)c1ccccn1 [Example 28] | 105 to 118
O=C(Nc1ccc(-c2noc(-c3ccccc3Cl)n2)c(C(F)(F)F)c1)c1ccccn1 [Example 29, N-{4-[5-(2-chlorophenyl)-1,2,4-oxadiazol-3-yl]-3-(trifluoromethyl)phenyl} pyridine-2-carboxamide] | 99.2 to 119
Cc1cc(NC(=O)c2ccccn2)ccc1-c1noc(-c2ccccc2)n1 [Example 30, N-[3-methyl-4-(5-phenyl-1,2,4-oxadiazol-3-yl)phenyl]pyridine-2-carboxamide] | 105 to 118
Cc1cc(NC(=O)c2ccccn2)ccc1-c1noc(-c2ccccc2Cl)n1 [Example 31, N-{4-[5-(2-chlorophenyl)-1,2,4-oxadiazol-3-yl]-3-methylphenyl}pyridine-2-carboxamide] | 105 to 135
COc1cc(NC(=O)c2cccc(F)n2)ccc1-c1noc(-c2ccccc2Cl)n1 [Example 32, N-{4-[5-(2-chlorophenyl)-1,2,4-oxadiazol-3-yl]-3-methoxyphenyl}-6-fluoropyridine-2-carboxamide] | 99.2 to 119
COc1cc(NC(=O)c2ncc(Cl)cc2F)ccc1-c1noc(-c2ccccc2Cl)n1 [Example 33, 5-chloro-N-{4-[5-(2-chlorophenyl)-1,2,4-oxadiazol-3-yl]-3-methoxyphenyl}-3-fluoropyridine-2-carboxamide] | 99.2 to 119
COc1cc(NC(=O)c2cccc(Cl)n2)ccc1-c1noc(-c2ccccc2Cl)n1 [Example 34, 6-chloro-N-{4-[5-(2-chlorophenyl)-1,2,4-oxadiazol-3-yl]-3-methoxyphenyl}pyridine-2-carboxamide] | 99.2 to 119
COc1cc(NC(=O)c2ccncn2)ccc1-c1noc(-c2ccccc2Cl)n1 [Example 38, N-{4-[5-(2-chlorophenyl)-1,2,4-oxadiazol-3-yl]-3-methoxyphenyl} pyrimidine-4-carboxamide] | 105 to 135
COc1cc(NC(=O)c2cccc(F)n2)ccc1-c1noc(-c2ccccc2F)n1 [Example 40, 6-fluoro-N-{4-[5-(2-fluorophenyl)-1,2,4-oxadiazol-3-yl]-3-methoxyphenyl} pyridine-2-carboxamide] | 105 to 135
COc1cc(NC(=O)c2nc(Cl)ccc2Cl)ccc1-c1noc(-c2ccccc2F)n1 [Example 41, 3,6-dichloro-N-{4-[5-(2-fluorophenyl)-1,2,4-oxadiazol-3-yl]-3-methoxyphenyl}pyridine-2-carboxamide] | 99.2 to 119
O=C(Nc1ccc(-c2noc(-c3ccccc3Cl)n2)c(Cl)c1)c1cccc(F)n1 [Example 42] | 99.2 to 119
O=S(=O)(Nc1ccccc1Cl)c1ccc(-c2noc(-c3ccccc3)n2)cc1 [Example 44, N-(2-chlorophenyl)-4-(5-phenyl-1,2,4-oxadiazol-3-yl)benzene-1-sulfonamide] | 99.2 to 119
O=S(=O)(Nc1ccc(F)cc1F)c1ccc(-c2noc(-c3ccccn3)n2)cc1 [Example 46, N-(2,4-difluorophenyl)-4-[5-(pyridin-2-yl)-1,2,4-oxadiazol-3-yl]benzene-1-sulfonamide] | 99.2 to 119
O=C(Nc1ccc(-c2nc(-c3ccccc3)no2)cc1)c1ccccc1 [Example 47, N-[4-(3-phenyl-1,2,4-oxadiazol-5-yl)phenyl]benzamide] | 99.2 to 119
O=C(Nc1ccc(-c2nc(-c3ccccc3)no2)cc1)c1cccc(Cl)c1 [Example 48, 3-chloro-N-[4-(3-phenyl-1,2,4-oxadiazol-5-yl)phenyl]benzamide] | 99.2 to 119
COc1ccc(C(=O)Nc2ccc(-c3nc(-c4ccccc4)no3)cc2)cc1 [Example 49, 4-methoxy-N-[4-(3-phenyl-1,2,4-oxadiazol-5-yl)phenyl]benzamide] | 105 to 118
O=C(Nc1ccc(-c2nc(-c3ccccc3)no2)cc1)c1ccc([N+](=O)[O-])cc1 [Example 50, 4-nitro-N-[4-(3-phenyl-1,2,4-oxadiazol-5-yl)phenyl]benzamide] | 105 to 135
Cn1cccc1C(=O)Nc1ccc(-c2nc(-c3ccccc3)no2)cc1 [Example 54, 1-methyl-N-[4-(3-phenyl-1,2,4-oxadiazol-5-yl)phenyl]-1H-pyrrole-2-carboxamide] | 99.2 to 119

Target: mGluR1 (Homo sapiens, UniProt Q13255)
Sequence (Q13255 19-1194): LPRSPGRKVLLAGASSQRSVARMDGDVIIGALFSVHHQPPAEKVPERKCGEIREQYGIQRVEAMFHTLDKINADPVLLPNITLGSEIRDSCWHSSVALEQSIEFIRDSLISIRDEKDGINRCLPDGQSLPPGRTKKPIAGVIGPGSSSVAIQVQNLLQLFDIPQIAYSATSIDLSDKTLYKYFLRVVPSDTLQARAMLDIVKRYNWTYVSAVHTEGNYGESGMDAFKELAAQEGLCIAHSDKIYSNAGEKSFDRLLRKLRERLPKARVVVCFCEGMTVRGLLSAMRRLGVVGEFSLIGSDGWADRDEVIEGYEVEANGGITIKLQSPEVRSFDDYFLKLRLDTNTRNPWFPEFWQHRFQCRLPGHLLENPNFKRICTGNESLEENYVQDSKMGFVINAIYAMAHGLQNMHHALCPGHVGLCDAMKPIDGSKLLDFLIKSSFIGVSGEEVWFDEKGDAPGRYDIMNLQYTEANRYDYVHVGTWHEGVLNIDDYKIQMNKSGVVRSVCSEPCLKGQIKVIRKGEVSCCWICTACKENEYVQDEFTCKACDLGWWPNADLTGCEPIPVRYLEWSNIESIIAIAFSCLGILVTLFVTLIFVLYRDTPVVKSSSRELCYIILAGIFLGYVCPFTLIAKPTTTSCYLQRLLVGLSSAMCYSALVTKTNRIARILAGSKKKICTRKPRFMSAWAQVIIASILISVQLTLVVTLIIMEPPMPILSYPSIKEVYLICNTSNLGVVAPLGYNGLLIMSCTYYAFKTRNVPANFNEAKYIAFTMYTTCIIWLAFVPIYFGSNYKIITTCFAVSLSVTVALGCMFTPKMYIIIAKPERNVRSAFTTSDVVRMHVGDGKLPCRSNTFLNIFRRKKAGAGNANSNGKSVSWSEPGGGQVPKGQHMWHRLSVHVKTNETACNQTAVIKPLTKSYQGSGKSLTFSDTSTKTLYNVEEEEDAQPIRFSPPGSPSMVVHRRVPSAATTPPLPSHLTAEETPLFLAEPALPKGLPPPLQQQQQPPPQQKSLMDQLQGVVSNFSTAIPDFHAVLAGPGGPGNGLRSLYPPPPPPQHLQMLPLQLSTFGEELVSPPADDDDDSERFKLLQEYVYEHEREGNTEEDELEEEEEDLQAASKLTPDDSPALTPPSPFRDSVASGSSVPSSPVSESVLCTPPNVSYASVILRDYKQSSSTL
Assay: not given
Conditions: cited from earlier work

SMILES | partial antagonist of mGluR1 [%]
O=C(Nc1ccccc1)C12CC1C(=NO)c1ccccc1O2 (single isomer, unassigned; (-)) [(-)PHCCC, N-phenyl-7-(hydroxyimino)cyclopropan[b]chromen-1a-carboxamide] | 30
